Structures can show the parent of a compound that is named as a salt. Where two headings read alike, the source gives them in different places.

Test [1] deals with T1, Candida albicans ASADH (CalASADH), aspartate semialdehyde dehydrogenase, his-tagged (Candida albicans, UniProt Q5ALM0).
T1 construct: His tag; made in house
T1 sequence (Q5ALM0 1-365): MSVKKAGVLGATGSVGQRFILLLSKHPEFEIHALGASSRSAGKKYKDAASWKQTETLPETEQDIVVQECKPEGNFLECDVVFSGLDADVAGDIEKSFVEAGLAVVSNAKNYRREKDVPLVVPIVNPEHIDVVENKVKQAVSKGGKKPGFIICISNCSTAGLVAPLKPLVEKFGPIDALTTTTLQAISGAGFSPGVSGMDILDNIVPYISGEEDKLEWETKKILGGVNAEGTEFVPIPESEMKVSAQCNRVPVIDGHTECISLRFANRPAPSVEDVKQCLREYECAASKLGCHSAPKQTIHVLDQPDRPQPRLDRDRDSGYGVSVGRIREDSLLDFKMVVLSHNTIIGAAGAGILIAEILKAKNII
The experiment in a line: Inhibition/time-dependent inactivation of Candida albicans ASADH by vinyl sulfones (purified his-tagged enzyme; NADPH production at 340 nm). In kind it is biochemical. The conditions noted are these: FIG. 5; pH 8.6, 25° C., 0.3 mM ASA, 1.5 mM NADP, 20 mM phosphate; irreversible covalent inactivators. The protocol:
FIG. 5 is a table showing the affinities and the rates of inactivation of example vinyl sulfones as inactivators of a fungal ASADH, in accordance with some embodiments of the present technology;
Their initial inhibition potencies (Ki values) were determined by varying the concentration of each vinyl sulfone in the presence of fixed, non-saturating substrate levels.
Aryl vinyl sulfones can be reasonably potent inhibitors of CalASADH, each inhibitor was then tested to determine if it would function as an enzyme inactivator. […] In most cases the residual enzyme activity, measured following a subsequent 20-fold dilution into an assay mixture, decreased to less than 5% of the control rate after incubation with low micromolar levels of these inactivators for 10 min or less. To determine the rate of inactivation the concentration of each vinyl sulfone in this pre-incubation mixture was then varied, centered around their initial measured Ki values. The rate of activity loss observed in each incubation reaction (kobs) was plotted against the inhibitor concentration to determine the inactivation rate (kinact) for that compound and the concentration that produces half-maximal inactivation (Ki). […] The proposed product of the reaction of the active site nucleophile (Cys-156) with this inactivator predicts key interactions of the p-nitro group with Arg-18 and Ser-187, and the protonation of the covalent intermediate by His-256. […] Reaction of this inactivator with the active site nucleophile (Cys-156) predicts keys interactions between its carboxyl group and several backbone amide nitrogens that would shift this adduct further from the active site base (His-256). FIG. 3 illustrates inactivation of Candida albicans ASADH by 4-(methylvinylsulfonyl)nitrobenzene. Plot of the natural log of the ratio of enzyme activity at each time point over the initial enzyme activity, showing the loss of activity as a functional of incubation time for different concentrations of inactivator: 0 μM, 0.75 μM, 1.5 μM, 3 μM, 6 μM. The resulting observed rates at each concentration (kobs) were plotted against the inactivator concentration and a non-linear fit to these replotted data yielded the rate of inactivation (kinact) and the inhibition constant (Ki).
The ASADH from Candida albicans (CalASADH) was purified using an ÄKTA chromatography system as previously described (Arachea et al., 2010), with only minor modifications. A nickel-immobilized metal affinity (IMAC) column was used for the purification of the his-tagged enzyme, with an initial buffer wash containing 20 mM imidazole to remove loosely bound proteins before elution with a 20 to 400 mM imidazole gradient. The enzyme activity was assayed at 25° C. by following the production of NADPH at 340 nm in a SpectraMax 190 plate reader (Molecular Devices). Enzyme inhibitors were evaluated by the same assay in the presence of 120 mM CHES buffer, pH 8.6, with 120 mM KCl, 0.3 mM ASA, 1.5 mM NADP, 20 mM phosphate and varying concentrations of each potential inhibitory compound to be tested. The data were fitted to a competitive inhibitor model which corrects for the levels of substrates present relative to their individual Km values.
To examine the possibility of enzyme inactivation each vinyl sulfone compound was incubated in a defined concentration range with 30 μg/ml of CalASADH, with the inhibitor concentrations grouped around their determined Ki values. Aliquots (10 μl) were removed from the enzyme-inhibitor reaction mixture at various times ranging from 30 secs to 60 min, with most compounds examined from 1 to 10 min at 2 min intervals. Each aliquot was then added to a 190 μl of the same assay mixture as described above for the inhibition studies to measure the residual enzyme activity. […]

A further test concerns the target C. auris ASADH (Candidozyma auris, UniProt A0A2H0ZN20). The experiment in a line: C. auris ASADH irreversible inhibition. In kind it is biochemical. The procedure:
These amino acid analogs may be synthesized in accordance with various techniques and schemes provided herein. Two are vinyl sulfones and one is an acrylamide. Accordingly, the core functional group of compounds described herein can be at least one of a vinyl sulfone and/or an acrylamide. The vinyl sulfones were tested against C. auris ASADH as irreversible inhibitors.

Another test has as its target T2, CalASADH (Candida albicans, UniProt Q5ALM0).
T2 construct: His tag; made in house
T2 sequence (Q5ALM0 1-365): T1 sequence (Q5ALM0 1-365)
Nature of the test: Reversibility of CalASADH inactivation by exogenous thiols. Format: biochemical. The conditions noted are these: incubated 10 min, read-out: residual activity of CalASADH. The procedure:
This loss of activity supports the hypothesis that these vinyl sulfones are covalently modifying this enzyme. To determine whether this inactivation can be reversed by the introduction of an exogenous nucleophile a large excess of either cysteine (5 mM) or glutathione (10 mM) was added to the reaction mixture after incubation, and the activity of this inactivated enzyme was then monitored. Samples of CalASADH that had been incubated either with 3 μM 4-(methylvinylsulfonyl)nitrobenzene or with 100 μM 3-(phenylsulfonyl)acrylic acid for 10 min were measured to have from 5 to 10% residual activity. At this point, after either cysteine or glutathione was added to each reaction mixture, the residual enzyme activity was monitored as described above.

Test [2] deals with Vibrio cholera ASADH (V. cholera ASADH), aspartate semialdehyde dehydrogenase. The experiment in a line: Inactivation of the bacterial ASADH ortholog from Vibrio cholera by vinyl sulfones (comparison with the fungal enzyme). Format: biochemical. The note with it: FIG. 6, irreversible covalent inactivators. An excerpt:
FIG. 6 is a table showing a comparison of the differences in affinities and rates of inactivation of example vinyl sulfones as inactivators of either a bacterial or a fungal ASADH, in accordance with some embodiments of the present technology; and
Enhanced reactivity upon binding to an enzyme target is a desirable property if these vinyl sulfones are to serve as effective antifungal agents. However, increased selectivity in target binding is equally important. […] The ASADH from the […] bacterium Vibrio cholera has >90% overall sequence homology to the C. albicans enzyme, with the exception of a helical domain insert (Arachea et al., 2010), and all of the essential active site functional amino acids are fully conserved between these enzyme forms. Five different vinyl sulfones that span the fungal ASADH potency spectrum were selected and examined as potential inactivators of the bacterial ASADH. […] However, importantly, several of these compounds already show some level of discrimination between the fungal and bacterial ASADHs (Table 3).
Ideally, any antifungal agent should have high specificity, interacting only with its intended target. […] Each of the vinyl sulfones that were examined as inactivators of a fungal ASADH were also found to inactivate the bacterial ASADH ortholog, but several of them do so with lower efficiencies. In particular, the best fungal ASADH inactivators with a polar functional group at the 4-position of the benzyl ring are from 7 to 9-fold less efficient when examined as bacterial ASADH inactivators (See e.g. Table 3). By contrast, the inactivators with this polar group in the 2- or 3-position show no significant differences in reactivity between the fungal and bacterial forms of ASADH. The respective active sites of these two ASADH orthologs are virtually identical. However, a conserved arginine (Arg-18) found in fungal ASADH that is proposed to interact with the 4-nitro or the 4-carboxy groups in these inactivators (FIG. 1) is replaced with either a valine or a threonine in the bacterial ASADH family.
The ASADH from Candida albicans (CalASADH) was purified using an ÄKTA chromatography system as previously described (Arachea et al., 2010), with only minor modifications. […] The enzyme activity was assayed at 25° C. by following the production of NADPH at 340 nm in a SpectraMax 190 plate reader (Molecular Devices). Enzyme inhibitors were evaluated by the same assay in the presence of 120 mM CHES buffer, pH 8.6, with 120 mM KCl, 0.3 mM ASA, 1.5 mM NADP, 20 mM phosphate and varying concentrations of each potential inhibitory compound to be tested. […]

The test system of the next test is S. aureus. Nature of the test: Disk diffusion assay, S. aureus. In kind it is cell-based. The procedure:
(§1) The following disk diffusion assays were performed with example compounds described above to assess the ability of compounds to inhibit growth of microorganism. A compound that inhibits its target enzyme may perform poorly for a number of reasons, including low solubility in water or slow rate of transport across a microbial membrane.

Another test deals with K pneumoniae. The experiment in a line: Disk diffusion assay, K pneumoniae. In kind it is cell-based. The protocol:
as §1
Background: Agar diffusion results depend on both activity and mobility in agar.

C. auris ASADH, sequence (A0A2H0ZN20 entry or part of it): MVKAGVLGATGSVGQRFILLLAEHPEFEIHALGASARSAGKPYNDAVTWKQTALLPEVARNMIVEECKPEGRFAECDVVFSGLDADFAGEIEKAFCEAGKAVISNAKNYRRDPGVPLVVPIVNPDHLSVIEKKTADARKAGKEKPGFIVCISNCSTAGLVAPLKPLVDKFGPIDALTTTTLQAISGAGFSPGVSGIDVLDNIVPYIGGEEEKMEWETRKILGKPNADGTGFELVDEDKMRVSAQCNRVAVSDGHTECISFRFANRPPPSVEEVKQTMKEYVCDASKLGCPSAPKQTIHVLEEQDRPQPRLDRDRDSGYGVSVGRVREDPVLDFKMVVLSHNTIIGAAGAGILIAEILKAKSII

Take `O=C(O)/C=C/S(=O)(=O)c1ccccc1` [Compound 15, 3-(phenylsulfonyl)acrylic acid]: the Ki in test [1] was found to be 67.1 ± 15.8 µM. At C. auris ASADH, `NC(C/C=C/S(=O)(=O)Cc1ccccc1)C(=O)O` (centres unmarked) [S-benzylsulfonylvinylalanine, 3-(benzylsulfonylvinyl)-alanine hydrochloride] displayed a Ki of 0.3 µM. `O=C(O)/C=C/S(=O)(=O)c1ccccc1` [3-(phenylsulfonyl)acrylic acid]: on CalASADH (100 μM), the remaining activity at 100 µM was in the range of 5 to 10%. Regarding `CS(=O)(=O)/C=C/c1ccc(C(=O)O)cc1` [Compound 1, 4-(methylsulfonylvinyl)benzoic acid], the Ki worked out at 0.78 ± 0.1 µM in test [1] and 4.45 ± 0.25 µM in test [2]. With `CS(=O)(=O)/C=C/c1ccccn1` [Compound 3, 2-(methylsulfonylvinyl)pyridine], the Ki in test [1] is 2.64 ± 0.22 µM. For `CS(=O)(=O)/C=C/c1cccc(C(=O)O)c1` [Compound 13, 3-(methylsulfonylvinyl)benzoic acid], the Ki in test [1] amounted to 36.9 ± 6.2 µM. Turning to `CS(=O)(=O)/C=C/c1cccc([N+](=O)[O-])c1` [Compound 12, 3-(methylsulfonylvinyl)nitrobenzene], the figures for the Ki in test [1] and in test [2] were 19.6 ± 1.4 µM and 10.3 ± 2.3 µM, respectively. As to `CS(=O)(=O)/C=C/c1ccc([N+](=O)[O-])cc1` [4-(methylvinylsulfonyl)nitrobenzene, 4-(methylsulfonylvinyl)nitrobenzene], the remaining activity at 3 µM at CalASADH (3 μM) fell in the range of 5 to 10%.

For `CS(=O)(=O)C=CC[C@H](N)C(=O)O` [S-methylsulfonylvinylacrylamide, 3-(S-methylsulfonylvinyl)-alanine hydrochloride], on C. auris ASADH (irreversible inhibitors, read-out: inhibitory constant), the Ki was 0.1 µM.

For `O=S(=O)(/C=C/c1ccccc1)C(F)(F)F` [Compound 7, Trifluoromethylsulfonylvinylbenzene], the Ki in test [1] came to 21.7 ± 8 µM. Still for that read-out and setting: as for `O=S(=O)(/C=C/c1ccccn1)c1ccccc1` [Compound 8, 2-(Phenylsulfonylvinyl)pyridine], the figure is 8.49 ± 0.94 µM. On to `CS(=O)(=O)/C=C/c1cc(O)ccc1O` [2-MSV-dihydroxbenzene, 2-(S-methylsulfonylvinyl)1,4-dihydroxybenzene], for which the “disk diffusion, S. aureus” value in the test on S. aureus (aromatic compounds) was “medium”. In addition, the “disk diffusion, K pneumoniae” value with K pneumoniae (aromatic compounds) is recorded as “weak”.

`CS(=O)(=O)/C=C/c1ccc([N+](=O)[O-])cc1` [Compound 2, 4-(methylsulfonylvinyl)nitrobenzene]: the Ki was found to be 1.02 ± 0.28 µM in test [1] and 6.29 ± 0.59 µM in test [2]. With `O=S(=O)(/C=C/c1cccnc1)c1ccccc1` [Compound 11, 3-(Phenylsulfonylvinyl)pyridine], the Ki in test [1] worked out at 42.2 ± 3 µM. For `NC(=O)/C=C/S(=O)(=O)c1ccccc1` [PhSAm, 3-S-Phenylsulfonylacrylamide], the “disk diffusion, S. aureus” value with S. aureus (vinyl sulfone carboxamides) was “strong”. For the same compound, the “disk diffusion, K pneumoniae” value in the test on K pneumoniae (vinyl sulfone carboxamides) is “strong”.

As to `CS(=O)(=O)/C=C/c1ccccc1[N+](=O)[O-]` [Compound 14, 2-(methylsulfonylvinyl)nitrobenzene], the Ki in test [1] stood at 56.7 ± 2.7 µM; in test [2], 2.57 ± 0.23 µM.

In turn, `O=S(=O)(/C=C/c1ccncc1)c1ccccc1` [Compound 5, 4-(phenylsulfonylvinyl)pyridine] yielded a Ki in test [1] of 2.16 ± 0.24 µM.

As for `CS(=O)(=O)/C=C/C(N)=O` [MeSAm, 3-S-Methylsulfonylacrylamide], in the test on S. aureus (vinyl sulfone carboxamides), the “disk diffusion, S. aureus” value is on record as “strong”. Further, the “disk diffusion, K pneumoniae” value in the test with K pneumoniae (vinyl sulfone carboxamides) is on record as “strong”. On to `CS(=O)(=O)/C=C/c1ccccc1` [Compound 6, Methylsulfonylvinylbenzene], for which the Ki in test [1] amounted to 4.26 ± 0.83 µM. On the same count and under the same terms, the result for `CS(=O)(=O)/C=C/c1ccc(O)c(O)c1` [Compound 4, 4-(methylsulfonylvinyl)-1,2-benzenediol] reads 3.52 ± 0.42 µM; that for `CS(=O)(=O)/C=C/c1cccnc1` [Compound 10, 3-(methylsulfonylvinyl)pyridine], 25.1 ± 6.8 µM; that for `CS(=O)(=O)/C=C/c1ccncc1` [Compound 9, 4-(methylsulfonylvinyl)pyridine], 5.69 ± 0.78 µM.
